Data set [1] relates to MC38 cells. Put plainly: MTT viability assay, MC38. It counts as cell-based, murine. The conditions noted are these: 72 h, mean±SD, read-out: IC50 [μM] (n = 3) MC38 MTT. The method, then: (§1) In a preliminary test, the stability of all compounds dissolved in the cell medium (c = 100 μM, T = [drawing 47] ) for 72 h was validated by HPLC (see Supporting Information). Cell lines were incubated with the respective compounds in a concentration range of 1.56–100 μM for 72 h, and cell viability was measured using 3-(4,5-dimethylthiazol-2-yl)-2,5-diphenyltetrazolium bromide (MTT) and crystal violet (CV) assays. […] As MTT tests gave inconsistent results, possibly due to interference of the compound with mitochondrial respiration, for the further evaluation only the CV results are considered[97],[98].
(§2) The biological study was performed on a murine colon adenocarcinoma cell line (MC38), two human colorectal carcinoma cell lines (HCT116 and HT29), and a human fetal lung fibroblast cell line (MRC-5). All cell lines are commercially available and were obtained from the American Type Culture Collection (ATCC). The human cell lines were kept in HEPES-buffered RPMI-1640 medium supplemented with 10 [drawing 141] heat-inactivated FCS, 2 mM L-glutamine, 0.01 [drawing 142] sodium pyruvate, penicillin (100 units mL^−1), and, streptomycin ( [drawing 143] mL^-1). The MC38 cell line was maintained in DMEM medium additionally supplemented with 1 [drawing 144] non-essential amino acids. Cells were grown at [drawing 145] in a humidified atmosphere with 5 [drawing 146] [drawing 147] . Peritoneal exudate cells (PECs) were isolated from healthy C57BL/6 mice (males, n = 3, 3 months old, weight 22–25 g) by performing an ice-cold PBS peritoneal lavage. Mice were sacrificed by cervical dislocation. Cells were cultivated for 4 h when nonadherent population was removed by washing in PBS, and additionally cultivated overnight in HEPES-buffered RPMI-1640 medium supplemented with 5 [drawing 148] heat-inactivated FCS before treatment with experimental drugs. Animal handling and protocol for isolation of PECs were performed according to European Union rules, and the ARRIVE guidelines 2.0.
(§3) For the viability tests, MC38, HCT116, and HT29 cells were seeded in 96-well plates at a density of 2 [drawing 149] 103, 5 [drawing 150] 103, and 6 [drawing 151] 10^3 cells/well, respectively. To determine whether the drug affected the viability of healthy, non-malignant cells, MRC-5 and PECs were seeded in 96-well plates at a density of 8 [drawing 152] 103 and 2 [drawing 153] 10^5 cells/well, respectively. For the flow cytometric analyses, MC38 cells were seeded in 6-well plates at 5 [drawing 154] 10^4 cells/well. For morphological assessment of nuclei and the detection of autophagy, MC38 cells were seeded in 2-well chamber slides at 1.5 [drawing 155] 10^4 cells/well.
(§4) After 72 h, cell viability was determined using MTT and CV tests. First, the supernatant from the wells was discarded and the cells were incubated with an MTT solution (0.5 mg mL^−1). After half an hour, the purple formazan crystals formed were dissolved in DMSO. For CV staining of the cells, the cells were fixed with 4 [drawing 157] PFA for 10 min and then stained with a 0.02 [drawing 158] CV solution for 15 min, all at room temperature (RT). The cells were then washed with tap water, air-dried and the dye was dissolved in 33 [drawing 159] acetic acid. For both viability tests, the absorbance of the developed colors was measured using an automated microplate reader at 570 nm with a reference wavelength of 670 nm. The results were expressed as a percentage of the control values of the untreated cells, which were arbitrarily set at 100 [drawing 160] . IC50 values, defined as 50 [drawing 161] inhibitory concentration, were calculated using a four-parameter logistic function and presented as mean±SD. All biological experiments were performed in triplicates. To evaluate the nature of the detected autophagy, a combined treatment with compound 3 and the autophagy inhibitors chloroquine (Chlq) and 3-methyladenine (3-MA) was carried out. […] After 72 h, cell viability was determined by CV assay.
For orientation: Tetrazolium assays rely on reduction of a dye to a coloured formazan, in cell work by metabolically active cells.

In data set [2] the test system is MC38 cells. Nature of the data set: Crystal violet (CV) viability assay, MC38. The class given is cell-based, murine. The conditions noted are these: 72 h, mean±SD, read-out: IC50 [μM] (n = 3) MC38 CV. As to the method:
as §1, §2, §3, §4

Data set [3] has as its system HCT116 cells. Nature of the data set: MTT viability assay, HCT116. The class given is cell-based, human. The conditions noted are these: 72 h, mean±SD, read-out: IC50 [μM] (n = 3) HCT116 MTT. The method, then: as §1, §2, §3, §4
The test system of data set [4] is HCT116 cells. Put plainly: Crystal violet (CV) viability assay, HCT116. It counts as cell-based, human. The conditions noted are these: 72 h, mean±SD, read-out: IC50 [μM] (n = 3) HCT116 CV. As to the method: as §1, §2, §3, §4
Data set [5] relates to HT29 cells. Put plainly: MTT viability assay, HT29. It counts as cell-based, human. The conditions noted are these: 72 h, mean±SD, read-out: IC50 [μM] (n = 3) HT29 MTT. As to the method: as §1, §2, §3, §4
Data set [6] relates to HT29 cells. Put plainly: Crystal violet (CV) viability assay, HT29. It counts as cell-based, human. The conditions noted are these: 72 h, mean±SD, read-out: IC50 [μM] (n = 3) HT29 CV. The method, then: as §1, §2, §3, §4
Data set [7] has as its system MC38, HCT116, and HT29. Put plainly: Viability assays, summary over the three cancer cell lines. It counts as cell-based. The conditions noted are these: 72 h; for effect on cell viability: concentrations up to 100 μM. As to the method: as §1, §4
The nature of data set [8]: Hydrolysis stability of the lactam in solution. It counts as physicochemical. The conditions noted are these: several pH-levels, acids, bases, temperatures and solvents. The text has this: To estimate the functionality as a prodrug and the stability of the oxindoles, we investigated the behavior in solution at several pH-levels, with different acids, bases, temperatures and solvents (see Supporting Information). […] The alkaline hydrolysis was successful with CsOH in a degassed 1:3 water-ethanol mixture at [drawing 29] , while acidic hydrolysis happened at [drawing 30] in 40% aqueous sulfuric acid with 2% acetic acid. Upon attempted isolation however, the lactam was re-formed within minutes as observed by [drawing 31] H and ^11B{ [drawing 32] H} NMR spectroscopy (see Supporting Information). […] The reclosing to the oxindole ring might be attributed to an increased nucleophilicity of the amino nitrogen atom stemming from its association to the carborane cluster via a cluster boron atom. This is supported by density functional theory (DFT) calculations (see Supporting Information).

The target in data set [9] is T1, human recombinant COX-2 (Homo sapiens, UniProt P35354).
T1 construct: purchased Cayman Chemical Company, Ann Arbor, MI, USA
T1 sequence (P35354 18-604): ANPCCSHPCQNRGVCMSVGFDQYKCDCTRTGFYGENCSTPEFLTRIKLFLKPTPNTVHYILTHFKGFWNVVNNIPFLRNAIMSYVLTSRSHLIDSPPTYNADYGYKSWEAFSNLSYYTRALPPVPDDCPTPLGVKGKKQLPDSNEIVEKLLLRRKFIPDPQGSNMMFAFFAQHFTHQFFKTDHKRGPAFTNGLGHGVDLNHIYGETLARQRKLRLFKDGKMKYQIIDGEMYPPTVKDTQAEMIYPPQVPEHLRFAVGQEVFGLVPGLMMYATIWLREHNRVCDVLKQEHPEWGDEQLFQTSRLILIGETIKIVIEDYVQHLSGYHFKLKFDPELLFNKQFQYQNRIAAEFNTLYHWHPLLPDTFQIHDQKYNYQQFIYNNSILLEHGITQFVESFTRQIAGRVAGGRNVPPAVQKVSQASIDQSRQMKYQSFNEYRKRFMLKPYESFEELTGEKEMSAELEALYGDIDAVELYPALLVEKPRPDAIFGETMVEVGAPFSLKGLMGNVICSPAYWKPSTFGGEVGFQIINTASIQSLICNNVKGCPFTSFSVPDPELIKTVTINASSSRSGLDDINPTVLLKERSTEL
Put plainly: COX Fluorescent Inhibitor Screening Assay, COX-2. The class given is biochemical. The conditions noted are these: for COX inhibition, in words: in vitro COX assay, COX-1 and COX-2. As to the method: The COX inhibition activity against ovine COX-1 and human recombinant COX-2 was determined using the COX Fluorescent Inhibitor Screening Assay Kit (Cayman Chemical Company, Ann Arbor, MI, USA) according to the manufacturer’s instructions as reported.

The test system of data set [10] is Hep-G2. The conditions noted are these: cited from earlier work.
For data set [11], the system named is MCF7, MiaPaCa-2, KB, HuTu80, L132, B16F10 and Molt4 cancer cells. Set-up: method as in doi:10.1007/s00044-012-0309-2. The conditions noted are these: cited from earlier work.
For data set [12] the following is noted: cited from earlier work.
For data set [13] the following is noted: in vivo ref 43, 44; cited from earlier work.
The conditions of data set [14]: buffer solutions at pH 1.2 and pH 7.4 and human serum ref 36, 43; cited from earlier work.

With “1-[2-(1,12-dicarba-closo-dodecaboranyl)]-1,3-dihydro-2H-indolin-2-one [p1]”, the IC50 in data set [1], in [2], in data set [3], in [4], in data set [5] and in data set [6] was over 100 µM in each case. Moreover, the “effect on cell viability” value in [7] is given as “no effect on cell viability”. Besides, the “stability of the lactam towards hydrolysis” value in data set [8] is listed as “extraordinarily stable towards hydrolysis”.

On to `O=C1Cc2ccccc2N1c1c(Cl)cccc1Cl` [CCF, 1-(2,6-dichlorophenyl)-1,3-dihydro-2H-indolin-2-one, reference compound], for which, in data set [9], the “COX inhibition, in words” value was “no inhibition at all”. Moreover, the inhibition at 100 µM in data set [9] (read-out: %Inh. @ 100 μM (n = 2) COX-2) stood at 5%. Also, the IC50 is 32.6 ± 2.7 µM in data set [1] (Mus musculus, MC-38); 75.1 ± 3.8 µM in data set [2] (Mus musculus, MC-38); 46.7 ± 2.4 µM in data set [3] (Homo sapiens, HCT-116); 73.5 ± 3.9 µM in data set [4] (Homo sapiens, HCT-116); 77.7 ± 5.5 µM in [5] (Homo sapiens, HT-29); 74.4 ± 4.8 µM in data set [6] (Homo sapiens, HT-29). The IC50 in [7] (CV) is about 74 µM; in data set [10], 24.5 ± 1.11 µM. Also, the “effect in initial in vitro tests on cancer cells” value in data set [11] is “no effect”. In addition, the gastrotoxicity result in data set [12] is “without causing gastrotoxicity”. Further, the “in vivo conversion to open-chain diclofenac” value in data set [13] is “hydrolysis of the lactam to form the open-chain diclofenac”. Moreover, in data set [14], the stability towards hydrolysis entry is recorded as “High stability towards hydrolysis”.

Turning to “1-[9-(1,7-dicarba-closo-dodecaboranyl)]-1,3-dihydro-2H-indolin-2-one [m1]”, in data set [9], the “%Inh. @ 100 μM (n = 2) COX-2” value was 19%. In addition, the IC50 in [1], in data set [2], in data set [3], in data set [4], in data set [5] and in data set [6] was over 100 µM throughout. In addition, the “effect on cell viability” value in data set [7] is “no effect on cell viability”.

Consider “1-[9-(1,2-dicarba-closo-dodecaboranyl)]-1,3-dihydro-2H-indolin-2-one [o1]”, for which the “%Inh. @ 100 μM (n = 2) COX-2” value in data set [9] is recorded as 14%. In addition, the IC50 in data set [1], in data set [2], in data set [3], in [4], in data set [5] and in data set [6] was over 100 µM each time. In addition, in data set [7], the “effect on cell viability” value was “no effect on cell viability”.

As for “Sodium 1-[2-(7,8-dicarba-nido-undecaborate)]-1,3-dihydro-2H-indolin-2-one [compound 2]”, the “%Inh. @ 100 μM (n = 2) COX-2” value in data set [9] is reported as 56%. Moreover, the IC50 in [9] (absolute IC50, 0.1 to 100 μM in duplicate, 95% CI in brackets) is 58.5 µM; in data set [1] it was over 100 µM; in [2] it was over 100 µM; in data set [3], over 100 µM; in data set [4], over 100 µM; in [5] it was over 100 µM. Besides, the IC50 in data set [6] was over 100 µM. Further, the “COX inhibition, in words” value in data set [9] is “moderately active COX-inhibitors”. Besides, in data set [7], the “effect on cell viability” value is reported as “no effect on cell viability”.

Consider `O=C(O)Cc1ccccc1Nc1c(Cl)cccc1Cl` [DCF, diclofenac], for which the IC50 in data set [1] (Mus musculus, MC-38) is over 100 µM; in data set [2] (Mus musculus, MC-38) it was over 100 µM; in [3] (Homo sapiens, HCT-116), over 100 µM; in data set [4] (Homo sapiens, HCT-116) it was over 100 µM; in data set [5] (Homo sapiens, HT-29) it was over 100 µM; in [6] (Homo sapiens, HT-29), over 100 µM. Further, the “effect on cell viability” value in data set [7] is reported as “no effect on cell viability”.

For orientation: IC50 means the point on the concentration scale where inhibition reaches its midpoint.
